Values quoted from earlier work in patent US20080057002A1, “Non-aqueous compositions containing urea and allantoin and methods for preparing same” (priority 2006, published 2008).

Details: expressed in g/100 g solvent @25 degree. C.

NC(=O)NC1NC(=O)NC1=O (stereo not drawn) [allantoin, (2,5-dioxo-4-imidazolidinyl) urea]
solubility of allantoin in ethanol (ethanol): < 0.1%
solubility of allantoin in propylene glycol (propylene glycol): < 0.1%
solubility of allantoin in water (water): 0.45%
